Here are results for one molecule from patent publication US20200270225A1, “Chiral Diacylhydrazine Ligands for Modulating the Expression of Exogenous Genes via an Ecdysone Receptor Complex” (Intrexon Corporation, priority 2007, published 2020).

The target of data set [1] is T1, [V390I/Y410E/E274V]-CfEcR (Choristoneura fumiferana, UniProt O77240).
T1 construct: assay construct b835
The data set is classed as cell-based. The following applies: S, 3T3 Cells. A digest of the protocol:
(§1)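 NIH3T3 cells were transiently co-transfected with GAL4-DBD fused to CfEcR DEF domains (wild-type or V390I/Y410E/E274V), VP16-AD fused to chimeric human/Locusta RXR, and a GAL4-response luciferase reporter. Ligand was given at 8 doses, 0.01–33 µM, 0.33% DMSO, luciferase read at 48 h. EC50 came from fold induction over DMSO via three-parameter logistic fit; Relative Max FI was taken versus GS™-E ligand.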

The target of data set [2] is wild-type Choristoneura fumiferana EcR (D, E and F domains) (Choristoneura fumiferana, UniProt O77240). The data set is classed as cell-based. The following applies: S, WT-CtEcR, 3T3 Cells. The method, boiled down:
as §1

Data set [3] relates to RheoSwitch® Therapeutic System (RTS) gene expression. Nature of the data set: In vivo induction of RTS SEAP reporter in electroporated mice. Further details: species or system C57BL6 mice. The following applies: intraperitoneal injection 26 nmol/mouse; monitored seventeen days. The text has this:
The wild-type D, E, and F domains from spruce budworm Choristoneura fumiferana EcR (“CfEcR-DEF”; SEQ ID NO: 1) were mutated [V107 (gtt)→1107 (att) and Y127 (tac)→E127 (gag)] and fused to a GAL4 DNA binding domain (“Gal4DBD1-147”; SEQ ID NO: 2). Helices 1 through 8 of the EF domains from Homo sapiens RXRPβ (“HsRXRβ-EF”; nucleotides 1-465 of SEQ ID NO: 4) and helices 9 through 12 of the EF domains of Locusta migratoria Ultraspiracle Protein (“LmUSP-EF”; nucleotides 403-630 of SEQ ID NO: 5) were fused to the transactivation domain from VP16 (“VP16AD”; SEQ ID NO: 6), which regulates a reporter gene human secreted alkaline phosphatase (“SEAP”, SEQ ID NO: 12) that was placed under the control of a 6xGAL4 response element (SEQ ID NO: 13) and a transthyretin promoter (SEQ ID NO: 14). Each element of the gene switch was on a separate plasmid. Receptor expression was under the control of a CMV promoter (SEQ ID NO: 15). Induction was evaluated by the amount of reporter protein expressed in the presence of ligand.
SEAP expression in serum of mice was evaluated after electroporation of the gene switch into mouse quadriceps. Mice were anesthetized with 2 μL/g of a mixture of ketamine (100 mg/mL) and xylazine (20 mg/mL). Animals were then shaved, DNA vectors injected into the muscle in a volume of 2×50 μL polyglutamic acid (12 mg/mL water), electrode conductivity gel applied, and an electrode caliber (1 cm×1 cm; model 384) was placed on hind leg. The muscle was electroporated with 200 V/cm, 8 times, for 20 msec/pulse, at 1 sec time intervals. The transverse electrical field direction was reversed after the animals received half of the pulses. Electroporation was performed with an ECM 830 electroporator from BTX Molecular Delivery Systems.
[…] In other experiments the concentration of ligand was decreased to 26 nmol/50 μL of DMSO/mouse. […]
Mouse serum was obtained by centrifugation of blood acquired by retroorbital bleeding with a small glass capillary tube. SEAP quantification was determined using a Clontech Great Escape chemiluminescence kit and by comparison with the Clontech SEAP standard. […]

Molecules are shown by their SMILES.

What is called EC50 is the concentration at which the effect is half-maximal.

With `CCC[C@H](N(NC(=O)c1cccc(OC)c1CC)C(=O)c1cc(C)cc(C)c1)C(C)(C)C` [Example 31, (S)-3,5-Dimethyl-benzoic acid N-(1-tert-butyl-butyl)-N′-(2-ethyl-3-methoxy-benzoyl)-hydrazide], the EC50 in data set [1] is roughly 0.03 µM; in data set [2], 0.136 µM. Besides, the “RMFI (relative maximum fold induction)” value in data set [1] (relative to GS-E ligand) was 0.57; in data set [2] (relative to GS-E ligand), 0.52. Also, the “RTS gene reporter (SEAP) expression in mouse serum” value in data set [3] is “does not induce RTS gene reporter expression”.
